Patent publication US5840711A, “Compositions containing lithium inorganic salts and anti-viral drugs and method of treating viral infections such as acquired immunodeficiency syndrome” (priority 1997, dated 1998)
“Also recorded” adds a separate entry of the source. Like-named read-outs stand apart in the source and are kept apart here.

Tests used:
[1] = test system: BFU-E of Normal Bone Marrow
Procedure: (§1) The laboratory studies were performed in vitro to evaluate whether either drugs, i.e., with or without their lithium formulation when combined with either normal bone marrow cells or bone marrow cells taken from MAIDS animals would express: 1) differences in their toxicity profile when measured in culture and 2) differences comparing the responses using normal bone marrow cells versus bone marrow cells from MAIDS animals, in other words, comparing viral-infected cells with non-viral infected cells.
(§2) This table is interpreted as follows.

[2] = test system: CFU-GM of Normal Bone Marrow
Procedure: as §1, §2

[3] = test system: CFU-GM (Myeloid) of normal bone marrow cells; experiment: AZT bone marrow toxicity in vitro, CFU-GM colony formation; format: cell-based
Source text: (§3) This is a standard practice.

[4] = test system: CFU-Meg (Megakaryocyte) of normal bone marrow cells; experiment: AZT bone marrow toxicity in vitro, CFU-Meg colony formation; format: cell-based
Source text: as §3

[5] = test system: BFU-E (Erythroid) of normal bone marrow cells; experiment: AZT bone marrow toxicity in vitro, BFU-E colony formation; format: cell-based
Source text: as §3

[6] = test system: HIV-positive patient with severe Factor VIII deficiency; conditions: cited from earlier work
AIDS patients = conditions: clinical use; listed as zidovudine (AZT); cited from earlier work
HIV-infected patients = conditions: cited from earlier work
LP-BM5 MuLV [7] = test system: LP-BM5 MuLV
Source text: Female C57BL6 mice (8-10 weeks of age) were purchased from Harlan, Indianapolis, Ind., USA. All animals were quarantined for a minimum of 1-week before experimental use. Animals were housed in plastic cages and fed Purina lab chow and water ad libitum.
LP-BM5 MuLV isolate used in these studies was originally derived from a bone marrow stromal cell line (SC-1) harvested from animals infected with mink cell MuLV (Morse et al., 1992) and is routinely maintained in the laboratory. LP-BM5 MuLV is a retrovirus mixture containing replication-competent helper B-trophic ecotropic mink cell focus forming (MCF) virus and an etiologic 4.9-kb replication defective genome termed EM5-def, susceptibility to which depends on the presence of the FV-1b genotype permissive for B-trophic virus replication (Morse et al., 1992). Therefore, the viral pool permissive for B-trophic virus replication (Morse et al., 1992) consisted of a mixture of B-tropic ecotropic and B-tropic mink cell focus-inducing murine immunodeficiency virus (MuLV). The titers of ecotropic and MCF MuLV were determined by XC plaque assay in SC-1 cells or by SC-1 UV-mink assay. […] To minimize exogenous infection, mice were maintained in microisolator cages and handled in accordance with the NIH Guide for the Care and Use of Laboratory Animals (NIH No. 85-23, 1985). Cages, bedding and food were autoclaved prior to use and all cages and animal handling or monitoring were performed in laminar air flow hoods. Ventilation and air flow in the animal facility was set to 12 changes/h. Room temperatures were regulated at 72°±2° F. and the rooms were on automatic 12-h light/dark cycles. One hundred and twenty mice were infected by i.p. injection of 0.25 ml of LP-BM5 MuLV virus-stock (10 μg of total protein) harvested from the SC-1 cell line following 3-day in vitro culture. The development of MAIDS induced by virus was monitored by physical findings (Morse et al., 1992). […] Increased systemic levels of IgM were used to monitor the development of LP-BM5 MuLV-induced disease.
In order to evaluate the ability of lithium to influence hematopoiesis in immunodeficient virus-infected animals, the following studies were performed. One hundred and twenty mice infected with LP-BM5 were divided into two groups, i.e., 60 virus-infected mice served as virus controls and the other group was administered lithium carbonate (Li2 CO3, ultra-pure; Alpha Therapeutics, Danville, Mass. USA) placed in the drinking water at a concentration of 1 mM as previously described from this laboratory (Gallicchio et al., 1993). Lithium treatment was initiated 7 days prior to virus infection. […] Lithium was initiated 7 days before virus infection and was continued for the duration of the study. Plasma lithium levels from animals bled by cardiac puncture on the days of examination were monitored by use of flame photometry (Model no. 943, IL Instruments, Lexington, Mass. USA). Virus-infected controls and virus-infected mice treated with lithium were serially sacrificed 1, 5, 9, 13, 17 and 21 weeks following virus inoculation for determination of lithium treatment on hematopoiesis following administration in LP-BMS5 MuLV infected animals.

herpes simplex virus = conditions: in vitro, cited from earlier work
LP-BM5 MuLV [8] = conditions: cited from earlier work
normal bone marrow cells [9] = conditions: in vitro with normal bone marrow cells (previous work; b10 also in vivo mice); cited from earlier work
normal bone marrow cells [10] = experiment: AZT toxicity on normal bone marrow cells in vitro, overall; conditions: normal bone marrow cells with AZT
Procedure: These studies were performed in vitro with normal bone marrow cells incubated in the presence of AZT and Li-GLA.

[11] = week 3, Lithium Control (1 mM), listed as lithium

Procedure for Normal Mice: C57BL6 were administered dose-escalation AZT (1.0 mg/ml and 2.5 mg/ml) for a period of 4-weeks. […] Animals were analyzed on a weekly basis for their peripheral blood indices.
C57BL6 female mice were purchased from Harlan, Indianapolis, Ind., USA used at 6-12 weeks of age, and housed 5 to a cage. […] Mice received Purina Autoclavable Chow and water ad libitum until initiation of the study. Thereafter, water containing lithium was supplied to the animals and daily water consumption was monitored.
In order to evaluate the ability of lithium to influence the hematopoietic toxicity associated with AZT in mice that had already been exposed to AZT, the following protocol was established. […] AZT and lithium were added to the animal drinking water Groups II, III, V and VI began their AZT all at the same time. Groups V and VI, at the beginning of week 5, received lithium that was added to their water supply. All treated groups then continued to receive AZT for an additional 4 weeks, equaling a total treatment-study period lasting 8-weeks in duration.
Animals were serially sacrificed, at least three to a group, on a weekly basis, for eight consecutive weeks. Animals were bled from the tail vein (600 μl) for assessment of peripheral blood indices; i.e., packed red cell volume, white blood cell, and platelet counts. In addition, at least one femur per animal was obtained and the bone marrow cellularity was calculated using standard laboratory procedures.
Mean±SE for values comparing control with experimental, utilizing duplicate studies were determined and analyzed using the two-sample ranks test of Wilcoxam-White (P<0.05) to determine significance.

Compound: 2',2'-Dideoxyinosine [ddI]
- CC50 [1]: 1 µM
- CC50 [2]: 100 µM

Compound: 2,3'-Dideoxycytosine [ddC]
- CC50 [1]: 0.6 µM
- CC50 [2]: 10 µM

Compound: Cc1cn([C@H]2C[C@H](N=[N+]=[N-])[C@@H](CO)O2)c(=O)[nH]c1=O [AZT, 3'-azido-3'-deoxythymidine]
- CFU-GM (Myeloid) colonies ([3]; AZT 0.01 μM): 53.5 ± 3
- CFU-GM (Myeloid) colonies ([3]; AZT 0.1 μM): 39.5 ± 3
- CFU-GM (Myeloid) colonies ([3]; AZT 1.0 μM): 28.5 ± 4
- CFU-GM (Myeloid) colonies ([3]; AZT 10.0 μM): 14.5 ± 3
- CFU-Meg (Megakaryocyte) colonies ([4]; AZT 0.01 μM): 16.0 ± 3
- CFU-Meg (Megakaryocyte) colonies ([4]; AZT 0.1 μM): 10.5 ± 3
- CFU-Meg (Megakaryocyte) colonies ([4]; AZT 1.0 μM): 6.5 ± 3
- CFU-Meg (Megakaryocyte) colonies ([4]; AZT 10.0 μM): 2.5 ± 2
- BFU-E (Erythroid) colonies ([5]; AZT 0.01 μM): 43.5 ± 5
- BFU-E (Erythroid) colonies ([5]; AZT 0.1 μM): 37.5 ± 3
- BFU-E (Erythroid) colonies ([5]; AZT 1.0 μM): 21.5 ± 5
- BFU-E (Erythroid) colonies ([5]; AZT 10.0 μM): 14.5 ± 2
- Lymphocytes and monocytes (Normal Mice; mouse, in vivo): Lower, but less significant, levels
- Toxicity leading to discontinuation ([6]; after 6 months): thrombocytopenia, neutropenia, and anemia
- Toxicity of AZT (AIDS patients): myelosuppression and bone marrow toxicity; also recorded: the development of virus resistance and bone marrow suppression
- Tolerated AZT dose with lithium (HIV-infected patients): up to 1,000 mg
- Tolerated zidovudine dose with lithium (HIV-infected patients; without observable signs of toxicity (Herbert et al., 1988)): up to 1000 mg/day

Compound: O=C([O-])[O-].[Li+].[Li+] [Lithium, lithium carbonate]
- Immune function status (LP-BM5 MuLV [7]; murine model (MAIDS)): significantly improves immune function status
- Hematopoiesis in MAIDS mice (LP-BM5 MuLV [7]; versus animals not receiving lithium): significant hematopoiesis
- Bone marrow BFU-E (LP-BM5 MuLV [7]; versus viral controls): increased BFU-E that peaked on week 9
- Bone marrow CFU-GM (LP-BM5 MuLV [7]; versus viral controls): increased CFU-GM compared to viral controls that peaked on week 9
- Bone marrow CFU-Meg (LP-BM5 MuLV [7]; versus viral controls): increased, although not until week 17 of examination
- Splenic BFU-E (LP-BM5 MuLV [7]; versus viral controls): increased at all time points examined
- Splenic CFU-GM (LP-BM5 MuLV [7]; versus viral controls): significantly increased at all time points compared to viral controls
- Splenic CFU-Meg (LP-BM5 MuLV [7]; versus viral controls): increased significantly
- Absolute neutrophils (LP-BM5 MuLV [7]; versus virus control group, FIG. 2a): increased
- Absolute lymphocytes (LP-BM5 MuLV [7]; versus virus control group, FIG. 2b): increased
- Effect on packed red cell volume (hematocrit) (LP-BM5 MuLV [7]; versus virus-control group, FIG. 1a): decreased the reduction
- Effect on white blood cell count (LP-BM5 MuLV [7]; versus virus-control group, FIG. 1b): decreased the reduction
- Effect on platelets (LP-BM5 MuLV [7]; versus virus-control group, FIG. 1c): decreased the reduction
- Signs of lithium toxicity, i.e., tremor (LP-BM5 MuLV [7]; virus-infected mice receiving lithium): no demonstrable signs of lithium toxicity
- Reduction in eosinophils (Normal Mice; AZT with lithium treatment): prevented this reduction in eosinophils observed with AZT
- Thrombocytopenia (Normal Mice; following lithium, each week examined, both AZT groups): no thrombocytopenia
- Eosinophils (Normal Mice; week 1, Lithium Control (1 mM)): 100 Percent Control
- Hematocrit (Normal Mice; week 1, Lithium Control (1 mM)): 98 Percent Control
- Neutrophils (Normal Mice; week 1, Lithium Control (1 mM)): 100 Percent Control
- Platelets (Normal Mice; week 1, Lithium Control (1 mM)): 100 Percent Control
- Eosinophils (Normal Mice; week 2, Lithium Control (1 mM)): 100 Percent Control
- Hematocrit (Normal Mice; week 2, Lithium Control (1 mM)): 82 Percent Control
- Neutrophils (Normal Mice; week 2, Lithium Control (1 mM)): 54 Percent Control
- Platelets (Normal Mice; week 2, Lithium Control (1 mM)): 93 Percent Control
- Eosinophils (Normal Mice; week 3, Lithium Control (1 mM)): 100 Percent Control
- Hematocrit (Normal Mice; week 3, Lithium Control (1 mM)): 101 Percent Control
- Neutrophils (Normal Mice; week 3, Lithium Control (1 mM)): 65 Percent Control
- Platelets (Normal Mice; week 3, Lithium Control (1 mM)): 93 Percent Control
- Neutrophils (Normal Mice; [11]): 120 Percent Control
- Platelets (Normal Mice; [11]): 116 Percent Control
- Eosinophils (Normal Mice; week 4, Lithium Control (1 mM)): 100 Percent Control
- Hematocrit (Normal Mice; week 4, Lithium Control (1 mM)): 100 Percent Control
- Neutrophils (Normal Mice; week 4, Lithium Control (1 mM)): 61 Percent Control
- Platelets (Normal Mice; week 4, Lithium Control (1 mM)): 74 Percent Control
- Eosinophils (Normal Mice; week 5, Lithium Control (1 mM)): 100 Percent Control
- Hematocrit (Normal Mice; week 5, Lithium Control (1 mM)): 98 Percent Control
- Neutrophils (Normal Mice; week 5, Lithium Control (1 mM)): 54 Percent Control
- Platelets (Normal Mice; week 5, Lithium Control (1 mM)): 69 Percent Control
- Eosinophils (Normal Mice; week 6, Lithium Control (1 mM)): 146 Percent Control
- Hematocrit (Normal Mice; week 6, Lithium Control (1 mM)): 94 Percent Control
- Neutrophils (Normal Mice; week 6, Lithium Control (1 mM)): 98 Percent Control
- Platelets (Normal Mice; week 6, Lithium Control (1 mM)): 69 Percent Control
- Eosinophils (Normal Mice; week 7, Lithium Control (1 mM)): 100 Percent Control
- Hematocrit (Normal Mice; week 7, Lithium Control (1 mM)): 98 Percent Control
- Neutrophils (Normal Mice; week 7, Lithium Control (1 mM)): 120 Percent Control
- Platelets (Normal Mice; week 7, Lithium Control (1 mM)): 116 Percent Control
- Eosinophils (Normal Mice; week 8 (+ lithium from week 5 in combination group), AZT 1.0 mg/ml): 110 Percent Control
- Eosinophils (Normal Mice; week 8 (+ lithium from week 5 in combination group), AZT 2.5 mg/ml (AZT column headed 2 mg/ml)): 164 Percent Control
- Hematocrit toxicity (Normal Mice; week 8, lithium versus AZT controls): the same level of toxicity as the AZT controls
- Eosinophils (Normal Mice; week 8, Lithium Control (1 mM)): 107 Percent Control
- Hematocrit (Normal Mice; week 8, Lithium Control (1 mM)): 88 Percent Control
- Neutrophils (Normal Mice; week 8, Lithium Control (1 mM)): 90 Percent Control
- Platelets (Normal Mice; week 8, Lithium Control (1 mM)): 79 Percent Control
- DNA polymerase activity (herpes simplex virus; HSV): inhibition of DNA polymerase activity
- Absolute neutrophil and platelet counts ([6]; within 3 days, 300 mg t.i.d. with methylprednisolone): a remarkable rise
- Splenomegaly and hypergammaglobulinemia (IgM) (LP-BM5 MuLV [8]; LP-BM5 MuLV animals (Gallicchio et al., 1994)): reduction in the splenomegaly and hypergammaglobulinemia
- Toxicity following dose-escalation of AZT (LP-BM5 MuLV [8]; MAIDS model in vivo (Gallicchio et al., 1995)): reduced the immunochematopoietic toxicity
- Hematopoietic progenitor cells from bone marrow or spleen (LP-BM5 MuLV [8]; in vivo, with zidovudine (literature)): effectively increased the number of hematopoietic progenitor cells
- Patients responding with neutrophilia (HIV-infected patients; 5 AIDS patients (report)): 3 of 5 patients
- Patients responding with neutrophilia (HIV-infected patients; AIDS patients (Worthington 1990)): one of three
- Patients tolerating higher doses of AZT (up to 1,000 mg) (HIV-infected patients): 3 of the 5 patients
- Patients with significant hematopoiesis (HIV-infected patients): Three of the five patients
- Patients responding with neutrophilia (HIV-infected patients; lithium at least 4 weeks, no AZT (Parenti et al., 1988)): 6 of 7
- Lithium toxicity (HIV-infected patients; no AZT (Parenti et al., 1988)): further lithium usage was limited due to the presence of lithium toxicity
- Patients demonstrating significant hematopoiesis (HIV-infected patients; with zidovudine (Herbert et al., 1988)): Three of the 5
- Myelosuppression and marrow toxicity of AZT (normal bone marrow cells [9]): reduced the myelosuppression and marrow toxicity of AZT significantly

Compound: [Cl-].[Li+] [lithium chloride]
- Concentration inhibiting herpes simplex virus replication (herpes simplex virus): 5 to 30 mM
- Myelosuppression and marrow toxicity of AZT (normal bone marrow cells [9]): reduced the myelosuppression and marrow toxicity of AZT significantly
- Effect on AZT toxicity / colony formation (normal bone marrow cells [10]): there is a reduction in AZT toxicity; however, the values never reach the level of the normal control; also recorded: reduced AZT toxicity but was not effective in increasing cell growth and colony formation
